Test results as given in patent US8603545B2, “Cosmetic and pharmaceutical uses of an extract of a plant belonging to the genus Buchholzia” (BASF Beauty Care Solutions France S.A.S., priority 2004, dated 2013).

Assays:
Format in all cases: cell-based
[1] = test system: human keratinocytes; test: Inhibition of UVB effect on human keratinocytes
Excerpt: Aim of the experiment: Determination of the potential of the tested ingredient to reduce negative effects of UV-B radiation on the survival rate of human keratinocytes. It is well known that UV-B radiation induces a cutaneous inflammation by stimulation of enzymes such as phospholipase A2 (PLA2). This enzyme catalyses the release of arachidonic acid which is a precursor of mediators of inflammation like the prostaglandin PGE2. Moreover this membrane stress results in the release of a cytoplasmic enzyme: lactate dehydrogenase (LDH). • Seeding of human keratinocytes in a growth medium • Incubation for 3 days at 37° C., CO2=5% (atmosphere: 5% carbon dioxide in air) • Exchange of the growth medium by balanced salt solution with a range of concentration of ingredients to be tested • Irradiation of keratinocytes by UV-B: 30 mJ/cm^2 • Incubation for 1 day at 37° C., CO2=5% • Recording of cell number by DNA measurement with a fluorescent probe • Recording of the level of released LDH (by an enzymatic reaction) and released PGE2 (by ELISA method) Results in % against control (average of 2 assays in triplicate): […]

[2] = test system: B16 melanocytes; test: Inhibition of melanin synthesis, efficacy test on B16 melanocytes
Procedure: Aim of the experiment: to evaluate the potential of compounds to lower the melanin synthesis; the compounds have been tested on a cell culture of melanocytes called B16. • Seeding of melanocytes in growth medium • Incubation for 3 days at 37° C., CO2=5% (atmosphere: 5% carbon dioxide in air) • Exchange of the growth medium by a medium with a range of concentration of ingredients to be tested • Incubation for 3 days at 37° C., CO2=5% (atmosphere: 5% carbon dioxide in air) • Recording of Cellular levels of protein by Bradford's method • Recording of melanin by a spectrophotometric method (OD at 475 nm) Results in % against control (average of 2 assays in triplicate): […]

[3] = test system: human fibroblasts; test: Inhibition of UVA effect on human fibroblasts
Procedure: Aim of the experiment: Determination of the potential of the tested ingredient to reduce negative effects of UV-A radiation on the survival rate of human fibroblasts.
• Seeding of human fibroblasts in a growth medium • Incubation for 3 days at 37° C., CO2=5% (atmosphere: 5% carbon dioxide in air) • Exchange of the growth medium by a medium with a range of concentration of ingredients to be tested • Incubation for 2 days at 37° C., CO2=5% • Exchange of the medium with ingredients by a balanced salt solution and UV-A irradiation (20 J/cm^2) • Recording of released MDA levels by spectro-fluorimetry. (MDA (malonaldialdehyde) is a product of oxidative degradation of lipids from cell membranes) • Recording of intracellular proteins by Bradford's method
Results in % against control (average of 2 assays in triplicate): […]

[4] = UV-B 30 mJ/cm2, dose 0.03 % w/v
[5] = UV-A 20 J/cm2, dose 0.0003 % w/v

## CC(=O)Oc1ccccc1C(=O)O [Aspirin ®, Aspirin]
[1]
  level of cell number from UV-B irradiated keratinocytes (in words): strongly increased
  level of released LDH from UV-B irradiated keratinocytes (in words): strongly decreased
  level of released PGE2 from UV-B irradiated keratinocytes (in words): strongly decreased
[1]; [4]
  Cell number: 59 % against control
  Level of released LDH: 8 % against control
  Level of released PGE2: 0 % against control

## O=c1cc(CO)occ1O [kojic acid]
[2]
  rate of released melanin from treated B16 melanocytes (in words): strongly decreased
[2]; dose 0.03 % w/v
  Rate of cellular proteins: 117 % against control
  Rate of melanin: 34 % against control

## Vitamin E
[3]
  rate of released MDA from UV-A irradiated fibroblasts (in words): strongly decreased
[3]; [5]
  Intracellular proteins: 103 % against control
  Rate of released MDA: 25 % against control
